Reference: patent US10172910B2, “Method of preventing or reducing the incidence of acute urinary retention” (Nymox Corporation, priority 2016, dated 2019)
Marks after values point to notes of the source that are not given here. No end group written: not given here.

Key:
Format in all cases: in vivo, human
Patients with BPH [1] = experiment: Example One: incidence of acute urinary retention after intraprostatic injection, double-blind, BPH patients; details: patients with BPH who received intraprostatic SEQ ID NO: 66 2.5 mg at least once (initial or subsequent treatment); after 2 years; followed 1 to 6 years; p < .05 vs control
Text: Patients with BPH were given an intraprostatic injection of either a) SEQ ID NO. 66 (Ile-Asp-Gln-Gln-Val-Leu-Ser-Arg-Ile-Lys-Leu-Glu-Ile-Lys-Arg-Cys-Leu) in phosphate buffered saline pH 7.2 (“PBS”) or b) PBS alone, under double-blind conditions by a urologist in an office setting under ultrasound guidance. Patients were followed for 1 to 6 years with regular physical examinations, laboratory tests, and evaluations of symptoms. Both groups of subjects were subsequently given either 1) no further treatment; 2) conventional oral medications such as alpha blockers or 5-alpha reductase inhibitors; 3) an intraprostatic injection of SEQ ID NO. 66 2.5 mg or 4) more than one of the preceding. The overall incidence of acute urinary retention in all patients who received intraprostatic SEQ ID NO. […] 66 under similar conditions.

Patients with BPH [2] = experiment: Example Two: acute urinary retention after vehicle injection followed by oral medications or SEQ ID NO. 66; details: PBS vehicle injection followed by intraprostatic injection of SEQ ID NO: 66; followed 1 to 6 years
Text: Patients with BPH were given an intraprostatic injection of PBS pH 7.2 vehicle alone, under double-blind conditions by a urologist in an office setting under ultrasound guidance. Patients were followed for 1 to 6 years with regular physical examinations, laboratory tests, and evaluations of symptoms, and treatments. […] 66 (Ile-Asp-Gln-Gln-Val-Leu-Ser-Arg-Ile-Lys-Leu-Glu-Ile-Lys-Arg-Cys-Leu).

Patients with BPH [3] = experiment: Example 3: acute urinary retention after vehicle or SEQ ID NO. 66 followed by oral BPH medications; details: SEQ ID NO: 66 2.5 mg intraprostatic followed by oral medications; followed 1 to 6 years; p < .02
Description: In this example, patients with BPH were given an intraprostatic injection of PBS pH 7.2 vehicle alone or an injection of SEQ ID NO. 66 (Ile-Asp-Gln-Gln-Val-Leu-Ser-Arg-Ile-Lys-Leu-Glu-Ile-Lys-Arg-Cys-Leu), 2.5 mg in PBS, under double-blind conditions by a urologist in an office setting under ultrasound guidance. Patients were followed for 1 to 6 years with regular physical examinations, laboratory tests, and evaluations of symptoms, and treatments. […] 66 and who subsequently received conventional oral medications used to treat BPH such as the classes of approved medications listed above.

Patients with BPH [4] = experiment: Example 4: acute urinary retention within 24 months, SEQ ID NO. 66 followed by oral medications or second injection vs vehicle
Description: Patients with BPH were given an intraprostatic injection under double-blind conditions by a urologist in an office setting under ultrasound guidance of either a) SEQ ID NO. 66 (Ile-Asp-Gln-Gln-Val-Leu-Ser-Arg-Ile-Lys-Leu-Glu-Ile-Lys-Arg-Cys-Leu), in phosphate buffered saline pH 7.2 (“PBS”); or b) SEQ ID NO. 66 in phosphate buffered saline pH 7.2 followed by a second injection of SEQ ID NO. 66 2.5 mg one month to 2 years later; or c) PBS vehicle alone followed by conventional oral BPH medications used to treat BPH including alpha blockers such as tamsulosin, terazosin, doxazosin, or 5-alpha reductase inhibitors such as finasteride, dutasteride, or phosphodiesterase type 5 inhibitors (PDE5 inhibitors) such as tadalafil. Patients were followed for 2 years with regular physical examinations, laboratory tests, and evaluations of symptoms. […] 66 followed by conventional medication or by another injection of SEQ ID NO. 66 there were >75% fewer instances of acute urinary retention compared to subjects who were administered only a control injection of vehicle alone.

Patients with BPH [5] = experiment: Example 5: acute urinary retention, follow-up up to 6 years, SEQ ID NO. 66 followed by oral medications or second injection vs vehicle
Description: Patients with BPH were administered an intraprostatic injection under double-blind conditions by a urologist in an office setting under ultrasound guidance of either a) SEQ ID NO. 66 (Ile-Asp-Gln-Gln-Val-Leu-Ser-Arg-Ile-Lys-Leu-Glu-Ile-Lys-Arg-Cys-Leu), in phosphate buffered saline pH 7.2 (“PBS”), followed by conventional oral BPH medications used to treat BPH including alpha blockers such as tamsulosin, terazosin, doxazosin, or 5-alpha reductase inhibitors such as finasteride, dutasteride, or phosphodiesterase type 5 inhibitors (PDE5 inhibitors) such as tadalafil. Patients were followed for up to 6 years with regular physical examinations, laboratory tests, and evaluations of symptoms; b) SEQ ID NO. 66 in phosphate buffered saline pH 7.2 followed by a second injection of SEQ ID NO. 66 2.5 mg one month to 2 years later; or c) PBS vehicle alone. […] 66 followed by conventional medication or by another injection of SEQ ID NO.

IDQQVLSRIKLEIKRCL [SEQ ID NO: 66]
Incidence of acute urinary retention (Patients with BPH [1]): 1.4%*
Incidence of acute urinary retention (Patients with BPH [2]): 2.1%
Incidence of acute urinary retention (Patients with BPH [3]): 0%*
fewer instances of acute urinary retention compared to vehicle alone (Patients with BPH [4]; SEQ ID NO. 66 followed by conventional medication or another injection of SEQ ID NO. 66, 2 years): > 75%
Incidence of acute urinary retention (<24 months) (Patients with BPH [4]; SEQ ID NO: 66 intraprostatic followed by oral medications or another injection of SEQ ID NO: 66, followed 2 years, p < .03): 0.76%*
fewer instances of acute urinary retention compared to vehicle alone (Patients with BPH [5]; SEQ ID NO. 66 followed by conventional medication or another injection of SEQ ID NO. 66, up to 6 years): > 75%
Incidence of acute urinary retention (Patients with BPH [5]; SEQ ID NO: 66 intraprostatic followed by oral medications or another injection of SEQ ID NO: 66, followed up to 6 years, p < .04): 2%*
